Measured values reported in patent US12486254B2, “Uracil derivatives for stimulating read-through of premature termination codons” (Southern Research Institute, priority 2022, dated 2025).

What follows are molecules tested on W134X-CF#14 FRT (assay: Read-through of a premature termination codon, W134X-CF#14 FRT data, with G418). Conditions: in presence of G418.
Assay type: cell-based
Procedure: (§1) The compounds shown in Table 1 were evaluated for their ability to stimulate read-through of a premature termination codon, and their respective activities are shown in Tables 2 and 3 below.

EC50	SMILES
≥ 100 µM	CCn1c(=O)c(C(=O)CN2CCCCC2=O)c(N)n(Cc2ccc(F)cc2)c1=O [1.165]
8.49 µM	CCn1c(=O)c(C(=O)CN2CCCCC2C(C)C)c(N)n(Cc2ccc(F)cc2)c1=O (stereo not shown) [1.175]
1.63 µM	CCn1c(=O)c(C(=O)CN(CC(=O)N2CCCCC2)C(C)C)c(N)n(Cc2ccc(F)cc2)c1=O [1.176]
65.1 µM	CCn1c(=O)c(C(=O)CN2CCCCC2CN(C)C)c(N)n(Cc2ccc(F)cc2)c1=O (stereo not shown) [1.177]
25.7 µM	CCn1c(=O)c(C(=O)CNc2cc(OC)c(OC)c(OC)c2)c(N)n(Cc2ccc(F)cc2)c1=O [1.183]
3.26 µM	CCn1c(=O)c(C(=O)CN2CCCC[C@@H]2c2nccn2C)c(N)n(Cc2ccc(F)cc2)c1=O [1.190]
29.7 µM	CCn1c(=O)c(C(=O)CN2CCCC2)c(N)n(Cc2ccc(F)cc2)c1=O [1.194]
1.56 µM	CCn1c(=O)c(C(=O)CN2CCCC[C@@H]2c2ncc[nH]2)c(N)n(Cc2ccc(F)cc2)c1=O [1.196]
4.1 µM	CCn1c(=O)c(C(=O)CN(CC(=O)N2CCC(F)(F)CC2)C(C)C)c(N)n(Cc2ccc(F)cc2)c1=O [1.203]
13 µM	CCn1c(=O)c(C(=O)CNc2ccc(C(N)=O)cc2)c(N)n(Cc2ccc(F)cc2)c1=O [1.206]
35.7 µM	CCn1c(=O)c(C(=O)CNc2ccccc2C(N)=O)c(N)n(Cc2ccc(F)cc2)c1=O [1.207]

Each molecule was assayed on G542X#10-HBE5x5 (assay: Read-through of a premature termination codon, G542X#10-HBE5x5 (Table 3)). Conditions: with G418.
Assay type: cell-based
Procedure: as §1

EC50	SMILES
≥ 100 µM	CCn1c(=O)c(C(=O)CN2CCCCC2=O)c(N)n(Cc2ccc(F)cc2)c1=O [1.165]
≥ 100 µM	CCn1c(=O)c(C(=O)CN2CCCCC2C(C)C)c(N)n(Cc2ccc(F)cc2)c1=O (stereo not shown) [1.175]
≥ 100 µM	CCn1c(=O)c(C(=O)CN(CC(=O)N2CCCCC2)C(C)C)c(N)n(Cc2ccc(F)cc2)c1=O [1.176]
≥ 100 µM	CCn1c(=O)c(C(=O)CN2CCCCC2CN(C)C)c(N)n(Cc2ccc(F)cc2)c1=O (stereo not shown) [1.177]
≥ 100 µM	CCn1c(=O)c(C(=O)CNc2cc(OC)c(OC)c(OC)c2)c(N)n(Cc2ccc(F)cc2)c1=O [1.183]
≥ 100 µM	CCn1c(=O)c(C(=O)CN2CCCC[C@@H]2c2nccn2C)c(N)n(Cc2ccc(F)cc2)c1=O [1.190]
≥ 100 µM	CCn1c(=O)c(C(=O)CN2CCCC2)c(N)n(Cc2ccc(F)cc2)c1=O [1.194]
≥ 100 µM	CCn1c(=O)c(C(=O)CN2CCCC[C@@H]2c2ncc[nH]2)c(N)n(Cc2ccc(F)cc2)c1=O [1.196]
≥ 100 µM	CCn1c(=O)c(C(=O)CN(CC(=O)N2CCC(F)(F)CC2)C(C)C)c(N)n(Cc2ccc(F)cc2)c1=O [1.203]
18.1 µM	CCn1c(=O)c(C(=O)CNc2ccc(C(N)=O)cc2)c(N)n(Cc2ccc(F)cc2)c1=O [1.206]
26.2 µM	CCn1c(=O)c(C(=O)CNc2ccccc2C(N)=O)c(N)n(Cc2ccc(F)cc2)c1=O [1.207]
